Among the data in patent US20160237012A1, “ANTICANCER AGENTS AND PROCESS OF MAKING THEREOF” (Golden Biotechnology Corporation, priority 2015, published 2016) are IC50 values, retold here.

Assay [1] has as its system Hep3B. Nature of the assay: MTT cell viability assay, Hep3B. The format is cell-based. The settings on record: 48 hours, human hepatoma Hep3B, average of at least six independent experiments. The procedure:
(§1) Human hepatoma (HepG2 and Hep 3B) and human breast cancer (MCF-7) cell lines were obtained from American Type Culture Collection (Rockville, Md., USA). HepG2 and Hep 3B cells were cultured in MEM alpha medium (Invitrogen/Gibco BRL, Grand Island, N.Y., USA) and MCF-7 cells were cultured in DMEM medium (Invitrogen/Gibco BRL). All cells were cultured at 37° C. in 5% CO2 in culture media supplemented with 10% fetal bovine serum (Invitrogen/Gibco BRL) and 100 U/ml streptomycin and penicillin (Invitrogen/Gibco BRL). For treatment, cells were seeded in six-well plates at 6.25×10^5 cells/well. On the following day, the media were changed to serum-free and the cells were serum-starved for 24 h. […]
(§2) The MTT (3-(4, 5-dimethylthiazol-2-yl)-2,5-diphenyl tetrazolium bromide) cell viability assay is a colorimetric assay system, which measures the reduction of a tetrazolium component (MTT) into an insoluble blue/purple colored formazan product by succinate tetrazolium reductase in mitochondria of viable cells. The absorbance of the complex is read spectrophotometrically and is directly proportional to the number of live or viable cells. […]
(§3) To each of the 96 well plates seeded at a density of 5,000 cells per well, a known concentration of test compounds were added individually. […] The IC50 value was determined by a nonlinear curve fitting program using the GraphPad prism software v 4.01.
On the technique in general: Tetrazolium assays rely on reduction of a dye to a coloured formazan, in cell work by metabolically active cells.

The test system of assay [2] is HepG2. Nature of the assay: MTT cell viability assay, HepG2. The format is cell-based. The settings on record: 48 hours, human hepatoma HepG2, average of at least six independent experiments. The procedure: as §1, §2, §3
The test system of assay [3] is MCF-7. Nature of the assay: MTT cell viability assay, MCF-7. Type of assay: cell-based. To be noted: MCF7, 48 hours, human breast cancer MCF-7, average of at least six independent experiments. The procedure:
as §1, §2, §3

The test system of assay [4] is Hep 3B. The settings on record: based on the prior published result; read-out: IC50 against Hep 3B; cited from earlier work.

With `CC(C)=CCC/C(C)=C/CC/C(C)=C/Cc1c(O)ccc(O)c1C` [Compound 1], the concentration for half-maximal inhibition (IC50) (usually the concentration that gives 50% inhibition) in assay [1] worked out at 325 nM; in assay [2], 948 nM; in assay [3] it was 519 nM.

For the compound `CC(C)=CCC/C(C)=C/CC/C(C)=C/CC1C(O)C=CC(=O)C1C` (stereo not shown) [Compound 3], the IC50 stood at 4.3 nM in assay [1], 156 nM in assay [2] and 108 nM in assay [3].

In the case of `COC1=C(OC)C(O)C(CC=C(C)CCC=C(C)CCC=C(C)C)C(C)C1=O` (stereo not shown) [4-hydroxy-2,3-dimethoxy-6-methyl-5-(3,7,11-trimethyldodeca-2,6,10-trienyl)cyclohex-2-enone], in assay [4], the half-maximal inhibitory concentration (IC50) is more than 30000 nM.
